Values of other authors as cited in patent US20200215024A1, “CANNABINOID FORMULATIONS FOR TREATING ALCOHOL HANGOVER” (Replennabis LLC, priority 2019, published 2020).

Conditions: in vivo

For `CCCCCc1cc(O)c2c(c1)OC(C)(C)[C@@H]1CCC(C)=C[C@@H]21` [THC, tetrahydrocannabinol], the oral bioavailability is listed as “less than 8%”.
